Source: PubChem BioAssay AID256 (DTP/NCI, 2004)
Several values for one entry are separate records, joined by “and”; a condition that tells them apart may be missing. Identical values can stand only once. Toxic doses and inconclusive results are not listed. Rule for the calls: active = survival T/C of 150% or more; inactive = T/C below 125% in these data.

Tested on: CD2F1 mice, L1210 leukemia ip, survival T/C
Assay: NCI In Vivo Anticancer Drug Screen. Data for tumor model L1210 Leukemia (intraperitoneal) in CD2F1 (CDF1) mice
Conditions: higher = longer survival
Procedure, shortened: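 Implant tumor; dose compound or vehicle; measure endpoint in both groups; report treated divided by control.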

[1] = endpoint: mean survival time, dose: 50.0 mg/kg/injection, schedule: Q01DX009 (ip), vehicle: saline
[2] = endpoint: mean survival time, dose: 100.0 mg/kg/injection, schedule: Q01DX001 (ip), vehicle: saline
[3] = endpoint: mean survival time, dose: 200.0 mg/kg/injection, schedule: Q01DX001 (ip), vehicle: saline
[4] = endpoint: mean survival time, dose: 400.0 mg/kg/injection, schedule: Q01DX001 (ip), vehicle: saline
[5] = endpoint: mean survival time, dose: 100.0 mg/kg/injection, schedule: Q04DX003 (ip), vehicle: saline with Tween-80

Measured: T/C

CC(=O)OCC#CCOC(C)=O
inactive: endpoint: mean survival time, dose: 50.0 mg/kg/injection, schedule: Q01DX009 (ip), vehicle: saline with Tween-80 93 % of control

CN(C)c1nc2c(N)ncnc2n1C1OC(CO)C(O)C1O (stereo unspecified)
inactive: endpoint: mean survival time, dose: 10.0 mg/kg/injection, schedule: Q04DX002 (ip), vehicle: saline with Tween-80 103 % of control | endpoint: mean survival time, dose: 20.0 mg/kg/injection, schedule: Q04DX002 (ip), vehicle: saline with Tween-80 98 % of control | endpoint: mean survival time, dose: 40.0 mg/kg/injection, schedule: Q04DX002 (ip), vehicle: saline with Tween-80 98 % of control | endpoint: mean survival time, dose: 50.0 mg/kg/injection, schedule: Q01DX001 (ip), vehicle: saline 100 % of control | [1] 123 % of control | [2] 106 % of control | endpoint: mean survival time, dose: 100.0 mg/kg/injection, schedule: Q01DX009 (ip), vehicle: saline 100 % of control | [3] 102 % of control

CCC(=O)OCC[N+](C)(C)C
inactive: [2] 100 % of control | [3] 96 % of control | [4] 96 % of control

N#CC[CH2][Sn]([Br])([Br])[CH2]CC#N
inactive: endpoint: mean survival time, dose: 0.78 mg/kg/injection, schedule: Q01DX009 (ip), vehicle: saline 97 % of control | endpoint: mean survival time, dose: 1.56 mg/kg/injection, schedule: Q01DX009 (ip), vehicle: saline 94 % of control | endpoint: mean survival time, dose: 3.12 mg/kg/injection, schedule: Q01DX009 (ip), vehicle: saline 92 % of control and 98 % of control | endpoint: mean survival time, dose: 6.25 mg/kg/injection, schedule: Q01DX009 (ip), vehicle: saline 105 % of control and 107 % of control | endpoint: mean survival time, dose: 12.5 mg/kg/injection, schedule: Q01DX009 (ip), vehicle: saline 94 % of control and 101 % of control and 107 % of control | endpoint: mean survival time, dose: 25.0 mg/kg/injection, schedule: Q01DX009 (ip), vehicle: saline 95 % of control and 97 % of control | [1] 89 % of control

NS(=O)(=O)c1ccc(N=Nc2ccc([As](=O)(O)O)cc2)cc1
inactive: endpoint: mean survival time, dose: 50.0 mg/kg/injection, schedule: Q04DX003 (ip), vehicle: saline 104 % of control | endpoint: mean survival time, dose: 100.0 mg/kg/injection, schedule: Q04DX003 (ip), vehicle: saline 101 % of control | endpoint: mean survival time, dose: 200.0 mg/kg/injection, schedule: Q04DX003 (ip), vehicle: saline 101 % of control

C/C=C(\C)C(=O)N/N=C\c1cc(Cl)cc(Cl)c1O
inactive: endpoint: mean survival time, dose: 12.5 mg/kg/injection, schedule: Q01DX009 (ip), vehicle: olive oil, sesame oil, peanut oil 100 % of control | endpoint: mean survival time, dose: 25.0 mg/kg/injection, schedule: Q01DX009 (ip), vehicle: olive oil, sesame oil, peanut oil 96 % of control | endpoint: mean survival time, dose: 50.0 mg/kg/injection, schedule: Q01DX009 (ip), vehicle: olive oil, sesame oil, peanut oil 94 % of control | endpoint: mean survival time, dose: 100.0 mg/kg/injection, schedule: Q01DX009 (ip), vehicle: olive oil, sesame oil, peanut oil 98 % of control | endpoint: mean survival time, dose: 200.0 mg/kg/injection, schedule: Q01DX009 (ip), vehicle: olive oil, sesame oil, peanut oil 98 % of control | endpoint: mean survival time, dose: 400.0 mg/kg/injection, schedule: Q01DX009 (ip), vehicle: olive oil, sesame oil, peanut oil 100 % of control

CS(=O)(=O)Nc1ccc(NS(C)(=O)=O)cc1
inactive: [5] 98 % of control | endpoint: mean survival time, dose: 200.0 mg/kg/injection, schedule: Q04DX003 (ip), vehicle: saline with Tween-80 102 % of control | endpoint: mean survival time, dose: 400.0 mg/kg/injection, schedule: Q04DX003 (ip), vehicle: saline with Tween-80 97 % of control

CC(=O)N(C)N=Nc1ccc([N+](=O)[O-])cc1
inactive: endpoint: mean survival time, dose: 25.0 mg/kg/injection, schedule: Q04DX003 (ip), vehicle: Klucel (hydroxypropylcellulose) (HPC) 103 % of control | endpoint: mean survival time, dose: 50.0 mg/kg/injection, schedule: Q04DX003 (ip), vehicle: Klucel (hydroxypropylcellulose) (HPC) 103 % of control | endpoint: mean survival time, dose: 100.0 mg/kg/injection, schedule: Q04DX003 (ip), vehicle: Klucel (hydroxypropylcellulose) (HPC) 97 % of control | endpoint: mean survival time, dose: 200.0 mg/kg/injection, schedule: Q04DX003 (ip), vehicle: Klucel (hydroxypropylcellulose) (HPC) 114 % of control

Cc1cn(CC(=O)c2cc3ccccc3[nH]2)c(=O)[nH]c1=O
inactive: endpoint: mean survival time, dose: 100.0 mg/kg/injection, schedule: Q04DX002 (ip), vehicle: saline with Tween-80 93 % of control | endpoint: mean survival time, dose: 200.0 mg/kg/injection, schedule: Q04DX002 (ip), vehicle: saline with Tween-80 93 % of control | endpoint: mean survival time, dose: 400.0 mg/kg/injection, schedule: Q04DX002 (ip), vehicle: saline with Tween-80 101 % of control

CNC(CCNCCc1ccccc1)CNCCc1ccccc1 (stereo unspecified)
inactive: endpoint: mean survival time, dose: 75.0 mg/kg/injection, schedule: Q01DX001 (ip), vehicle: saline 97 % of control | endpoint: mean survival time, dose: 150.0 mg/kg/injection, schedule: Q01DX001 (ip), vehicle: saline 107 % of control

O=N[O-].O=N[O-].[NH-]CC[NH-].[Pt+2]
inactive: endpoint: mean survival time, dose: 25.0 mg/kg/injection, schedule: Q04DX003 (ip), vehicle: saline with Tween-80 101 % of control | endpoint: mean survival time, dose: 50.0 mg/kg/injection, schedule: Q04DX003 (ip), vehicle: saline with Tween-80 98 % of control | [5] 93 % of control

O=C(O)C1CCC(C(=O)O)S1 (stereo unspecified)
inactive: [2] 96 % of control | [3] 101 % of control | [4] 110 % of control

O=C(O)Cc1ccccc1C(=O)O.[NH-]C1CCCCC1[NH-].[Pt+2]
inactive: endpoint: median survival time, dose: 3.12 mg/kg/injection, schedule: Q04DX003 (ip), vehicle: saline 102 % of control and 108 % of control | endpoint: median survival time, dose: 6.25 mg/kg/injection, schedule: Q04DX003 (ip), vehicle: saline 103 % of control and 108 % of control | endpoint: median survival time, dose: 12.5 mg/kg/injection, schedule: Q04DX003 (ip), vehicle: saline 109 % of control and 110 % of control | endpoint: median survival time, dose: 25.0 mg/kg/injection, schedule: Q04DX003 (ip), vehicle: saline 105 % of control and 109 % of control | endpoint: median survival time, dose: 50.0 mg/kg/injection, schedule: Q04DX003 (ip), vehicle: saline 117 % of control and 112 % of control
